These results are taken from ChEMBL document CHEMBL1201862, “PubChem BioAssay data set” (2004).

Assay in all cases: inhibition of tumour cell growth, NCI panel, 48 h
Assay [1] concerns A498.
Assay [2] has as its system A549.
Assay [3] deals with ACHN.
Assay [4] has as its system CAKI-1.
Assay [5] has as its system CCRF-CEM.
Assay [6] concerns EKVX.
For assay [7], the system named is K562.
Assay [8] deals with LOX IMVI.
Assay [9] has as its system M14.
The test system of assay [10] is MDA-MB-231.
In assay [11] the test system is MOLT-4.
For assay [12], the system named is NCI-H226.
For assay [13], the system named is NCI-H460.
For assay [14], the system named is OVCAR-8.
Assay [15] concerns SK-OV-3.
In assay [16] the test system is SNB-75.
Assay [17] relates to SW-620.
The subject of assay [18] is T47D.
The subject of assay [19] is TK-10.
The test system of assay [20] is U-251.

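How tested: cells in 96-well plates exposed to compound for 48 hours at five concentrations. GI50 marks 50% less growth.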 Active and inactive are the calls of the source. Rule as the data show it: active = GI50 up to about 1.1 µM and inactive = higher.

On to `COc1cc2nc3n(c(=O)c2cc1OC)CCCCC3`, for which the GI50 in assay [1] was > 100 µM (inactive); in assay [2] it was > 100 µM (inactive); in assay [3], > 100 µM (inactive); in assay [4] it was > 100 µM (inactive); in assay [5], 94.2 µM (inactive); in assay [6] it was > 100 µM (inactive). The GI50 in assay [7], in assay [8], in assay [9], in [10], in [11] and in assay [12] was > 100 µM (inactive) each time. The GI50 in assay [13], in assay [14], in [15], in assay [16], in assay [17] and in assay [18] was > 100 µM (inactive) in each case. Also, the GI50 in [19] and in assay [20] was > 100 µM (inactive) each time.
`O=C(NC(=O)c1ccccc1[N+](=O)[O-])Nc1ccc(Oc2ncc(Cl)cn2)c([N+](=O)[O-])c1`: the GI50 in assay [1] is 0.301 µM (active); in assay [2] it was 0.385 µM (active); in [3] it was 0.641 µM (active); in assay [4] it was 0.0456 µM (active); in assay [5], 0.126 µM (active); in assay [6] it was 2.93 µM (inactive). The GI50 was 0.0339 µM (active) in assay [7]; 0.895 µM (active) in assay [8]; 0.175 µM (active) in assay [9]; 0.281 µM (active) in [10]; 0.171 µM (active) in [11]; 0.263 µM (active) in [12]. Besides, the GI50 in [13] was 0.198 µM (active); in assay [14], 1.78 µM (inactive); in assay [15], 0.146 µM (active); in assay [16], 0.0767 µM (active); in [17], 0.106 µM (active); in assay [18], 0.414 µM (active). The GI50 in assay [19] was > 100 µM (inactive); in [20], 0.255 µM (active).
With `COc1ccc(\N=C/C=C/C(=C/COC(C)=O)OC(C)=O)cc1`, the GI50 is 32.3 µM (inactive) in assay [1]; 90.6 µM (inactive) in assay [2]; 17.3 µM (inactive) in assay [3]; 23.6 µM (inactive) in assay [4]; 4.56 µM (inactive) in assay [5]; 51.8 µM (inactive) in assay [6]. For the same compound, the GI50 was 4.89 µM (inactive) in [7]; 25.6 µM (inactive) in assay [8]; 32.7 µM (inactive) in assay [9]; 19.6 µM (inactive) in assay [10]; 68.1 µM (inactive) in assay [11]; > 100 µM (inactive) in assay [12]. For the same compound, the GI50 in assay [13] is 34.5 µM (inactive); in assay [14], 14.4 µM (inactive); in [15], 91.2 µM (inactive); in [16], > 100 µM (inactive); in [17], 10.2 µM (inactive); in assay [18] it was 72.9 µM (inactive). Further, the GI50 in [19] was 37.2 µM (inactive); in assay [20] it was 25.9 µM (inactive).
Consider `COc1cccc(C2c3cc4c(cc3OC(NNc3ccccc3)C2C)OCO4)c1OC` (stereo not given), for which the GI50 in assay [1] was 14.9 µM (inactive); in assay [2] it was 3.58 µM (inactive); in assay [3], 1.65 µM (inactive); in assay [4], 2.5 µM (inactive); in [5], 3.72 µM (inactive); in assay [6], 3.45 µM (inactive). Further, the GI50 in [7] was 1.49 µM (inactive); in assay [8] it was 16.5 µM (inactive); in [9] it was 5.06 µM (inactive); in [10], 17.5 µM (inactive); in assay [11], 2.55 µM (inactive); in assay [12], 5.06 µM (inactive). Also, the GI50 is 3.26 µM (inactive) in assay [13]; 7.6 µM (inactive) in assay [14]; 49.1 µM (inactive) in [15]; 11.2 µM (inactive) in assay [16]; 19.1 µM (inactive) in assay [17]; 5.09 µM (inactive) in [18]. Further, the results for the GI50 in [19] and in [20] were 2.61 µM (inactive) and 6.04 µM (inactive), respectively.
On to `CC(C)(C)n1c(=O)n2n(c1=O)C1c3cccc4cccc(c34)C2C2c3cccc4cccc(c34)C1n1c(=O)n(C(C)(C)C)c(=O)n12`, for which the GI50 in assay [1] was > 100 µM (inactive); in [2], 78.3 µM (inactive); in assay [3], 61.4 µM (inactive); in assay [4] it was 6.65 µM (inactive); in [5], 32.7 µM (inactive); in assay [6], 63.1 µM (inactive). For the same compound, the GI50 in assay [7] was 87.5 µM (inactive); in assay [8] it was 42.8 µM (inactive); in assay [9], > 100 µM (inactive); in assay [10] it was 32.9 µM (inactive); in assay [11], 61 µM (inactive); in [12], 84.1 µM (inactive). Further, the GI50 in [13] was 64.7 µM (inactive); in assay [14] it was 86.9 µM (inactive); in assay [15], 96.8 µM (inactive); in assay [16] it was 10.8 µM (inactive); in assay [17], 90.4 µM (inactive); in assay [18], 44.9 µM (inactive). In addition, the GI50 was 93.5 µM (inactive) in [19] and 43 µM (inactive) in [20].
Turning to `CCc1cc2c(c3c1CCCC3=O)CC1(Cc3ccc(C(=O)OC)cc3C1)C2` (stereo not given), the GI50 in assay [1] was > 100 µM (inactive); in assay [2], 48.4 µM (inactive); in [3], 25.6 µM (inactive); in [4] it was 96.6 µM (inactive); in assay [5], 29.3 µM (inactive); in [6] it was 96.6 µM (inactive). Also, the GI50 in assay [7] is 22 µM (inactive); in assay [8] it was 84.5 µM (inactive); in assay [9], 94.8 µM (inactive); in assay [10], > 100 µM (inactive); in [11] it was 24.9 µM (inactive); in assay [12], > 100 µM (inactive). For the same compound, the GI50 was > 100 µM (inactive) in assay [13]; > 100 µM (inactive) in assay [14]; > 100 µM (inactive) in [15]; 26.7 µM (inactive) in [16]; > 100 µM (inactive) in assay [17]; 65.2 µM (inactive) in [18]. The GI50 is > 100 µM (inactive) in assay [19] and 82.8 µM (inactive) in assay [20].
Take `N#Cc1c(-c2ccc(Cl)cc2)cc(-c2ccc(Nc3ccnc4cc(C(F)(F)F)ccc34)cc2)[nH]c1=O`: the GI50 in assay [1] was > 51.8 µM (inactive); in assay [2] it was > 100 µM (inactive); in assay [3] it was > 100 µM (inactive); in [4] it was > 43.4 µM (inactive); in assay [5] it was 3.7 µM (inactive); in assay [6], > 100 µM (inactive). Besides, the GI50 in assay [7] is 3.52 µM (inactive); in assay [8], 2.94 µM (inactive); in [9] it was 4.31 µM (inactive); in assay [10], 19.3 µM (inactive); in assay [11], 4.05 µM (inactive); in assay [12], > 92.3 µM (inactive). Besides, the GI50 is > 100 µM (inactive) in assay [13]; 38.3 µM (inactive) in assay [14]; 28.1 µM (inactive) in assay [15]; 11.7 µM (inactive) in assay [16]; 14 µM (inactive) in assay [17]; 4.79 µM (inactive) in [18]. Also, the GI50 was 24.4 µM (inactive) in assay [19] and 2.63 µM (inactive) in assay [20].
`Cc1cc(/N=C/c2ccc(F)cc2)n(-c2ccccc2)n1`: the GI50 was 42.3 µM (inactive) in [1]; 92 µM (inactive) in assay [2]; > 100 µM (inactive) in assay [3]; > 100 µM (inactive) in [4]; 34.6 µM (inactive) in assay [5]; 66.7 µM (inactive) in assay [6]. Moreover, the GI50 in [7] is 59.3 µM (inactive); in [8], > 100 µM (inactive); in assay [9], > 100 µM (inactive); in assay [10] it was > 100 µM (inactive); in assay [11] it was 35.3 µM (inactive); in [12], > 100 µM (inactive). For the same compound, the GI50 in assay [13] is 41.5 µM (inactive); in assay [14], > 100 µM (inactive); in assay [15], > 100 µM (inactive); in assay [16], 56.1 µM (inactive); in assay [17] it was > 100 µM (inactive); in assay [18], 27.2 µM (inactive). Further, the figures for the GI50 in assay [19] and in assay [20] were 57 µM (inactive) and > 100 µM (inactive), respectively.
For `C=C1C(=O)C23CC1CCC2C12CO[C@@]3(O)[C@@H](O)C1C(C)(C)C=CC2=O` (stereo not given in full), the GI50 in [1] is > 10 µM (inactive); in [2], 2.03 µM (inactive); in [3], 0.774 µM (active); in assay [4] it was 2.44 µM (inactive); in [5], 0.313 µM (active); in [6], 5.26 µM (inactive). In addition, the GI50 in assay [7] is 1.53 µM (inactive); in assay [8] it was 3.63 µM (inactive); in assay [9] it was 2.75 µM (inactive); in assay [10], 3.85 µM (inactive); in [11] it was 0.281 µM (active); in assay [12], 6.44 µM (inactive). The GI50 in assay [13] was 0.713 µM (active); in [14], 0.16 µM (active); in [15], 7.53 µM (inactive); in assay [16], 6.03 µM (inactive); in assay [17], 2.93 µM (inactive); in assay [18], 5.38 µM (inactive). Also, the values for the GI50 in assay [19] and in assay [20] were 0.893 µM (active) and 1.49 µM (inactive), respectively.
For `CC(C)(CN)CN`, the GI50 in [1], in assay [2], in assay [3], in assay [4], in [5] and in [6] was > 100 µM (inactive) throughout. Also, the GI50 in assay [7], in assay [8], in [9], in assay [10], in assay [11] and in [12] was > 100 µM (inactive) in each case. In addition, the GI50 in [13], in assay [14], in assay [15], in assay [16], in [17] and in assay [18] was > 100 µM (inactive) each time. Also, the GI50 in assay [19] and in assay [20] was > 100 µM (inactive) throughout.
